{"source": "patent US11952368B2", "about": "“FAPI dimer compound, FAPI dimer-based positron emission tomography (PET) imaging agent for tumor diagnosis, and preparation method and use thereof” (XIAMEN UNIVERSITY, priority 2021, dated 2024)", "key": {"HCC-PDX-1": {"tested_on": "HCC-PDX-1", "test": "PET imaging in HCC-PDX-1 model", "type": "in vivo, mouse", "description": "(§1) The PET imaging and biodistribution studies were conducted in HCC-PDX1 and HCC-PDX2 mouse models. The histological verification was first conducted, where the immunohistochemical staining and H&E staining were conducted for FAP and Ki67, a tumor tissue was digested for protein extraction, and the expression of FAP was detected by Western Blot. Verification results were shown in FIG. 6A-B, where the immunohistochemical staining result was shown in FIG. 6A and the Western Blot result was shown in FIG. 6B. […] Therefore, the models can be used for further mouse experiments.\n(§2) The products of ^68Ga-2PEG(3)-FAPI-dimer and ^68Ga-FAPI-46 were each diluted to a concentration of 74 MBq/mL. 7.4 MBq of ^68Ga-2PEG(3)-FAPI-dimer or 7.4 MBq of ^68Ga-FAPI-46 was injected into the HCC-PDX model through the tail vein (3 parallel experiments per group). All PET scans were conducted with an Inveon small animal PET scanner (Siemens Preclinical Solution, USA). The dynamic PET imaging was conducted with a scan duration of 60 min and reconstructed frames of 10×30 s, 10×60 s, 10×120 s, and 9×160 s. The 10 min static PET imaging was conducted with acquisition time points of 0.5 h, 1 h, 2 h, and 4 h after injection. For the blocking experiment, 30 nmol of unlabeled FAPI-46 was added to a ^68Ga-2PEG(3)-FAPI-dimer solution (with NS as a solvent) before injection. An image was iteratively reconstructed with 3D OPMAP 256.pPetRcn (Siemens) and converted into a % ID/g image. Region of interests (ROIs) in the tumor, liver, heart, kidney, and muscle were calculated on PET images to quantify radioactive signals."}, "[1]": {"test": "Stability test: incubation in PBS or FBS, radiochemical purity by HPLC", "type": "in vitro ADME", "details": "37° C., 1 h, 2 h, and 4 h", "description": "20 μL of a solution of the ^68Ga-2PEG(3)-FAPI-dimer (3.7 MBq activity/20 μL) prepared in Example 1 (with normal saline (NS) as a solvent) was taken and added to a centrifuge tube with 100 μL of FBS, and incubated at 37° C. for 1 h, 2 h, and 4 h to obtain an FBS co-incubation solution; 20 μL of the FBS co-incubation solution was taken, 40 μL of acetonitrile was added for protein precipitation, and a resulting mixture was filtered through a 0.22 μm needle filter membrane; and a radiochemical purity was analyzed through HPLC.\n20 μL of a solution of the ^68Ga-2PEG(3)-FAPI-dimer (3.7 MBq activity/20 μL) prepared in Example 1 (with NS as a solvent) was taken and added to a centrifuge tube with 100 μL of PBS (pH=7.4), and incubated at 37° C. for 1 h, 2 h, and 4 h to obtain a PBS co-incubation solution; 20 μL of the PBS co-incubation solution was taken and filtered through a 0.22 μm needle filter membrane; and a radiochemical purity was analyzed through HPLC."}, "HCC-PDX-2": {"tested_on": "HCC-PDX-2", "test": "PET imaging in HCC-PDX-2 model", "type": "in vivo, mouse", "details": "HCC-PDX-2, 7.4 MBq via tail vein", "description": "as §1\nas §2, with “For the blocking experiment, 30 nmol of unlabeled FAPI-46 was added to a ^68Ga-2PEG(3)-FAPI-dimer solution (with NS as a solvent) before injection. An image was iteratively reconstructed with 3D OPMAP 256.pPetRcn (Siemens) and converted into a % ID/g image.” left out"}, "[2]": {"tested_on": "lesions in the three cancer patients", "test": "PET/CT in tumor patients (NPC, thyroid cancer, HCC), SUVmax of lesions", "type": "in vivo, human", "description": "This experiment was approved by the Clinical Research Ethics Committee of the First Affiliated Hospital of Xiamen University, and all subjects signed a written informed consent form. Doses of ^68Ga-FAPI-46 and ^68Ga-2PEG(3)-FAPI-dimer for intravenous injection (1.8 MBq to 2.2 MBq [0.05 mCi to 0.06 mCi]/kg) were calculated according to a body weight of a patient. A cancer patient was administered with ^68Ga-2PEG(3)-FAPI-dimer and ^68Ga-FAPI-46 at an interval of 3 d. Data were acquired using a hybrid PET/CT scanner (Discovery MI, GE Healthcare, Milwaukee, WI, USA). A PET/CT image was acquired at 60 min after intravenous injection (a thyroid cancer patient was scanned twice at 60 min and 240 min after injection). A maximum standard uptake value (SUVmax) was automatically calculated with ROIs drawn on a transaxial image. PET/CT scanning was conducted at 60 min after the three patients were intravenously administered with ^68Ga-FAPI-46 and ^68Ga-2PEG(3)-FAPI-dimer, including a nasopharyngeal carcinoma (NPC) patient (non-keratinizing undifferentiated carcinoma, immunotherapy was conducted when the widespread bone metastasis occurred after chemoradiotherapy), a thyroid cancer patient (multiple cycles of radioactive iodine therapy were conducted after papillary thyroid carcinoma (PTC), total thyroidectomy, and lymph node dissection), and an HCC patient (untreated at preliminary diagnosis). The comparison of ^68Ga-FAPI-46 and ^68Ga-2PEG(3)-FAPI-dimer uptake among lesions in the three cancer patients was shown in Table 3."}, "[3]": {"details": "Patient 1 (NPC), PET/CT 60 min after i.v. injection"}, "[4]": {"details": "Patient 2 (Thyroid cancer), PET/CT 60 min after i.v. injection"}}}
{"compound": "CN(CCCN1CCN(C(=O)COCCOCCOCCNC(=O)CCC(=O)N[C@@H](CCCCNC(=O)CN2CCN(CC(=O)[O-])CCN(CC(=O)[O-])CCN(CC(=O)[O-])CC2)C(=O)NCCOCCOCCOCC(=O)N2CCN(CCCN(C)c3ccc4nccc(C(=O)NCC(=O)N5CC(F)(F)C[C@H]5C#N)c4c3)CC2)CC1)c1ccc2nccc(C(=O)NCC(=O)N3CC(F)(F)C[C@H]3C#N)c2c1.[68Ga+3]", "note": "[^68Ga-2PEG(3)-FAPI-dimer]", "values": [{"measurement": "uptake in normal organs", "setting": "HCC-PDX-1; HCC-PDX-1, 7.4 MBq via tail vein, PET", "result": "low and decline rapidly"}, {"measurement": "uptake and residence in tumor tissue compared with ^68Ga-FAPI-46", "setting": "HCC-PDX-1; HCC-PDX-1, 7.4 MBq via tail vein, PET 0.5 h, 1 h, 2 h, 4 h", "result": "better than"}, {"measurement": "blocking of tumor uptake by unlabeled FAPI-46", "setting": "HCC-PDX-1; two liver cancer PDX models (HCC-PDX-1 and HCC-PDX-2), 30 nmol unlabeled FAPI-46", "result": "can be blocked by unlabeled FAPI-46"}, {"measurement": "radiochemical purity after incubation in FBS", "setting": "[1]; FBS", "result": "greater than 90%"}, {"measurement": "radiochemical purity after incubation in PBS", "setting": "[1]; PBS (pH=7.4)", "result": "greater than 90%"}, {"measurement": "uptake in normal organs", "setting": "HCC-PDX-2; PET", "result": "low and decline rapidly"}, {"measurement": "uptake and residence in tumor tissue compared with ^68Ga-FAPI-46", "setting": "HCC-PDX-2; PET 0.5 h, 1 h, 2 h, 4 h", "result": "better than"}, {"measurement": "SUVmax, Bone metastasis 1", "setting": "[2]; [3]", "result": 17.8}, {"measurement": "SUVmax, Bone metastasis 2", "setting": "[2]; [3]", "result": 27.5}, {"measurement": "SUVmax, Bone metastasis 3", "setting": "[2]; [3]", "result": 27.4}, {"measurement": "SUVmax, Bone metastasis 4", "setting": "[2]; [3]", "result": 25.1}, {"measurement": "SUVmax, Bone metastasis 5", "setting": "[2]; [3]", "result": 29.8}, {"measurement": "SUVmax, Bone metastasis 6", "setting": "[2]; [3]", "result": 20.8}, {"measurement": "SUVmax, Bone metastasis 7", "setting": "[2]; [3]", "result": 17.2}, {"measurement": "SUVmax, Bone metastasis 8", "setting": "[2]; [3]", "result": 22.1}, {"measurement": "SUVmax, Bone metastasis 10", "setting": "[2]; [3]", "result": 23.3}, {"measurement": "SUVmax, Axillary lymph node 1", "setting": "[2]; [4]", "result": 23.2}, {"measurement": "SUVmax, Axillary lymph node 2", "setting": "[2]; [4]", "result": 33.2}, {"measurement": "SUVmax, Axillary lymph node 3", "setting": "[2]; [4]", "result": 28.9}, {"measurement": "SUVmax, Bone metastasis 1", "setting": "[2]; [4]", "result": 26.4}, {"measurement": "SUVmax, Cervical lymph node 1", "setting": "[2]; [4]", "result": 32.8}, {"measurement": "SUVmax, Cervical lymph node 2", "setting": "[2]; [4]", "result": 8.1}, {"measurement": "SUVmax, Hilar lymph node 1", "setting": "[2]; [4]", "result": 18.1}, {"measurement": "SUVmax, Mediastinal lymph node 1", "setting": "[2]; [4]", "result": 24.6}, {"measurement": "SUVmax, Supraclavicular lymph node 1", "setting": "[2]; [4]", "result": 39.0}, {"measurement": "SUVmax, Supraclavicular lymph node 2", "setting": "[2]; [4]", "result": 24.1}, {"measurement": "SUVmax, Primary tumor", "setting": "[2]; Patient 3 (HCC), tumor with low FAP expression, PET/CT 60 min after i.v. injection", "result": 9.8}, {"measurement": "uptake compared with ^68Ga-FAPI-46 in the comparative analysis of single lesions", "setting": "[2]; three cancer patients, Table 3", "result": "significantly higher"}]}
